The values below come from patent publication US11390584B2, “1-cyano-pyrrolidine compounds as USP30 inhibitors” (Mission Therapeutics Limited, priority 2015, dated 2022).

USP30, sequence (Q70CQ3 57-517): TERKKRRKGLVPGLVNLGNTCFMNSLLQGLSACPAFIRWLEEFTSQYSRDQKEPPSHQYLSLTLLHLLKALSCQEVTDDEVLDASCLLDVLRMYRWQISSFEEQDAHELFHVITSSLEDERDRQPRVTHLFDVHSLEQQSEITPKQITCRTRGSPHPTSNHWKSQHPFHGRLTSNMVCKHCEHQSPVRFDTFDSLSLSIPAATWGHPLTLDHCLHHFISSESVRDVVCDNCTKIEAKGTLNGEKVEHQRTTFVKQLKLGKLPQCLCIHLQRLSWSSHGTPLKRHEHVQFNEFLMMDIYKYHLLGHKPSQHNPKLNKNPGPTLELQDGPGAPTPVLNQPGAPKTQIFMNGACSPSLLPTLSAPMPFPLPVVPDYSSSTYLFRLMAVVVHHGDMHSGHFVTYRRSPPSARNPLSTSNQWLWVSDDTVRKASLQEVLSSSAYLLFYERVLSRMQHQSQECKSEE

For the test, the target named is USP30 (Homo sapiens (Human), UniProt Q70CQ3). Description: USP30 biochemical FP or FI IC50 assay. To be noted: read-out: IC50 range. The method, then:
In Vitro USP30 FP Inhibition Assay
USP30 Biochemical IC50 Assay
(§1) Dilution plates were prepared at 21 times the final concentration (2100 μM for a final concentration of 100 μM) in 50% DMSO in a 96-well polypropylene V-bottom plate (Greiner #651201). A typical 8-point dilution series would be 100, 30, 10, 3, 1, 0.3, 0.1, 0.03 μM final. Reactions were performed in duplicate in black 384 well plates (small volume, Greiner 784076) in a final reaction volume of 21 μl. Either 1 μl of 50% DMSO or diluted compound was added to the plate. USP30 was diluted in reaction buffer (40 mM Tris, pH 7.5, 0.005% Tween 20, 0.5 mg/ml BSA, 5 mM—beta-mercaptoethanol) to the equivalent of 0.05 µl/well and 10 μl of diluted USP30 was added to the compound. Enzyme and compound were incubated for 30 min at room temp. Reactions were initiated by the addition of 50 nM of TAMRA labelled peptide linked to ubiquitin via an iso-peptide bond as fluorescence polarisation substrate. Reactions were read immediately after addition of substrate and following a 2 hr incubation at room temperature. Readings were performed on a Pherastar Plus (BMG Labtech). λ Excitation 540 nm; λ Emission 590 nm.
In Vitro USP30 FI Inhibition Assay
USP30 Biochemical Fluorescence Intensity IC50 Assay
as §1, with “0.001 μl/well” for “0.05 µl/well”, “Ubiquitin-Rhodamine 110 (U-555; Boston Biochem) at a final concentration” for “50 nM”, “100 nM.” for “TAMRA labelled peptide linked to ubiquitin via an iso-peptide bond as fluorescence polarisation substrate.”, “h” for “hr”, “487” for “540”, “535” for “590”
In the case of “(R)-3-(1H-benzo [d]imidazol-2-yl)- N-(1-cyano pyrrolidin-3- yl)azetidine-1- carboxamide [Example 134]”, the IC50 lay within 100 to 1000 nM. Turning to “N-((R)-1-cyano pyrrolidin-3-yl)- ((2S,6R)-2,6- dimethyl morpholino)- 5-fluoroiso nicotinamide [Example 140]”, the half-maximal inhibitory concentration (IC50) lay in the range of 100 to 1000 nM. With “N-(1-cyanopyrrolidin-3-yl)-6-(4- phenoxypiperidin-1- yl)nicolinamide [Example 22]”, the IC50 fell in the range of 100 to 1000 nM. As to “rac-(3aR, 6aR)-1-(3-phenyl-1II- pyrazole-5- carbonyl)hexahydropyrrolo[3,4- b]pyrrole-5(1H)-carbonitrile [Example 52]”, the IC50 was 100 to 1000 nM. The value for “(R)-N-(1-cyano pyrrolidin-3-yl)- 3-phenoxy azetidine- 1-carboxamide [Example 133]” was 100 to 1000 nM.

One may read the IC50 as the concentration that gives 50% inhibition.
